Ends that are not written are not given here.
Tested on: Lactococcus lactis HP
Assay: Agarose-based assay of cell-free supernatants of S29X producing strains
Details: for Zone Diameter (mm): agarose (1%) GM17 assay, 10 µl cell-free supernatant of overnight producing culture in 4.6 mm wells, L. lactis HP, 30°C; for % difference (zone relative to wild type): agarose assay of supernatants against L. lactis HP, wild type serine = 100
Description: Agarose-based deferred antagonism assays were carried out as follows: GM17/LB (0.03%) underlay was prepared with 10 mM sodium phosphate buffer (SPB) at pH 7.4 to which was added agarose (1% w/v agarose), autoclaved and cooled to 50°C. Bacteria grown to mid-logarithmic phase were harvested by centrifugation and washed with 10 mM SPB at pH 7.4. Bacteria were then added to 15 mls cooled underlay medium to reach a concentration of 2×10^7 colony-forming units (CFU)/mL. The inoculated medium was rapidly transferred into sterile Petri plates, allowed to solidify and dried. Wells (4.6 mm in diameter) were then made in the seeded plates. 10 µl volumes of cell-free supernatant from overnight nisin derivative producing cultures or resuspended purified peptides were then added to the wells and the plates incubated at 30°C (L. lactis) or 37°C (Gram positive strains) or RT (Gram negative strains) for 3 hours. Polymyxin B (Sigma Aldrich) was used at a concentration of 20 µg/ml. The plates were then overlaid with 15 mls of autoclaved double strength GM17 (L. lactis) or LB (Gram negatives) agarose (1% w/v agarose) overlay medium precooled to 50°C. The plates were then incubated overnight at the relevant temperature.

Substance	Zone Diameter (mm)	% difference (zone relative to wild type) [%]
S29H: nisin A S29 saturation derivative, histidine at position 29 (ITSISLCTPGCKTGALMGCNMKTATCHCHIHVSK; not fully specified (bridges); also: lantibiotic nisin A (lanthionine rings, dehydrated residues not placed); UniProt P13068 24-57, looked up, variant S29H)	10.9±0.3	72
S29C: nisin A S29 saturation derivative, cysteine at position 29 (ITSISLCTPGCKTGALMGCNMKTATCHCCIHVSK; not fully specified; cysteine pairing not given here; UniProt P13068 24-57, looked up, variant S29C)	10.5±1.0	69
S29P: nisin A S29 saturation derivative, proline at position 29 (ITSISLCTPGCKTGALMGCNMKTATCHCPIHVSK; not fully specified (bridges); also: lantibiotic nisin A (lanthionine rings, dehydrated residues not placed); UniProt P13068 24-57, looked up, variant S29P)	13.7±1.0	89
S29F: nisin A S29 saturation derivative, phenylalanine at position 29 (ITSISLCTPGCKTGALMGCNMKTATCHCFIHVSK; not fully specified (bridges); also: lantibiotic nisin A (lanthionine rings, dehydrated residues not placed); UniProt P13068 24-57, looked up, variant S29F)	11.0±1.0	72
S29L: nisin A S29 saturation derivative, leucine at position 29 (ITSISLCTPGCKTGALMGCNMKTATCHCLIHVSK; not fully specified; cysteine pairing not given here; UniProt P13068 24-57, looked up, variant S29L)	12.7±0.7	84
S29V: nisin A S29 saturation derivative, valine at position 29 (ITSISLCTPGCKTGALMGCNMKTATCHCVIHVSK; not fully specified (bridges); also: lantibiotic nisin A (lanthionine rings, dehydrated residues not placed); UniProt P13068 24-57, looked up, variant S29V)	11.6±0.4	76
S29T: nisin A S29 saturation derivative, threonine at position 29 (ITSISLCTPGCKTGALMGCNMKTATCHCTIHVSK; not fully specified (bridges); also: lantibiotic nisin A (lanthionine rings, dehydrated residues not placed); UniProt P13068 24-57, looked up, variant S29T)	12.1±0.9	79
S29W: nisin A S29 saturation derivative, tryptophan at position 29 (ITSISLCTPGCKTGALMGCNMKTATCHCWIHVSK; not fully specified; cysteine pairing not given here; UniProt P13068 24-57, looked up, variant S29W)	12.1±1.2	79
S29N: nisin A S29 saturation derivative, asparagine at position 29 (ITSISLCTPGCKTGALMGCNMKTATCHCNIHVSK; not fully specified; cysteine pairing not given here; UniProt P13068 24-57, looked up, variant S29N)	12.6±1.0	83
S29I: nisin A S29 saturation derivative, isoleucine at position 29 (ITSISLCTPGCKTGALMGCNMKTATCHCIIHVSK; not fully specified; cysteine pairing not given here; UniProt P13068 24-57, looked up, variant S29I)	9.9±1.0	65
S29Y: nisin A S29 saturation derivative, tyrosine at position 29 (ITSISLCTPGCKTGALMGCNMKTATCHCYIHVSK; not fully specified (bridges); also: lantibiotic nisin A (lanthionine rings, dehydrated residues not placed); UniProt P13068 24-57, looked up, variant S29Y)	10.6±0.6	70
S29Q: nisin A S29 derivative, glutamine at position 29, made by site-directed mutagenesis (ITSISLCTPGCKTGALMGCNMKTATCHCQIHVSK; not fully specified; cysteine pairing not given here; UniProt P13068 24-57, looked up, variant S29Q)	15.3±0.1	100
S29R: nisin A S29 saturation derivative, arginine at position 29 (ITSISLCTPGCKTGALMGCNMKTATCHCRIHVSK; not fully specified (bridges); also: lantibiotic nisin A (lanthionine rings, dehydrated residues not placed); UniProt P13068 24-57, looked up, variant S29R)	11.0±0.6	72
S29K: nisin A S29 saturation derivative, lysine at position 29 (ITSISLCTPGCKTGALMGCNMKTATCHCKIHVSK; not fully specified (bridges); also: lantibiotic nisin A (lanthionine rings, dehydrated residues not placed); UniProt P13068 24-57, looked up, variant S29K)	9.9±1.0	64

Reference: PMC3466204 (PLoS ONE, 2012)
